Measurements as given in patent US20230150951A1, “2,5- OR 2,6-DISUBSTITUTED HYDROQUINONE DERIVATIVES WITH AT LEAST ONE CARBOXY, SULFO OR AMIDO GROUP USEFUL AS MEDICAMENTS” (OM PHARMA SA, priority 2020, published 2023).
Read-outs that look alike come from different tables or passages of the source.

Columns and labels:
Format in all cases: cell-based
VEGFR-2 = target: T1, VEGFR-2 (Homo sapiens, UniProt P35968); experiment: VEGF-165 induced phosphorylation of VEGF-Receptor on HUVEC; details: HUVEC preincubated 60 min, VEGF165 25 ng/mL 2 min; read-out: VEGFR-Phosphorylation inhibition IC50
T1 construct: endogenous in cells; host or cells: primary HUVEC

IL-10 = experiment: Cytokine release after LPS induction on human whole blood: IL-10
Description: (§1) Aim of this in vitro method is to assess compounds effects on release of a panel of cytokines from whole blood following lipopolysaccharide (LPS) induced inflammatory reaction. Whole blood was incubated with compounds for 1 h prior to LPS induction. Cytokine levels in blood were measured using a multiplex FACS-based panel.
(§2) IC50 values determined for the tested compounds expressed in microM [μM] and the values for the inhibition of cytokines were listed for each compound.
(§3) Effect on cytokines release after LPS induction was performed on the compounds dissolved in DMSO or H2O to reach 10-fold concentrated stock solutions and dissolved in culture media.
(§4) Test system: Whole blood was removed from a single donor (into lithium heparin coated tubes; BD Vacutainer; 367886) and diluted 1:5 with RPMI 1640 (Thermo Fisher, 61870036). Within 30 minutes of sampling, blood was incubated with compounds for 1 h prior to LPS stimulation (O111:B4—Sigma L4391; 10 ng/ml final concentration). Stimulation continued under standard cell culture conditions (37° C. with 5% CO2) overnight (18 h), after which plates were centrifuged and supernatant removed and frozen at −80° C. until used for analyses.
(§5) Dilution of test compounds: 10×concentrated solutions (concerning to the final assay concentrations) of each test compound were prepared with the appropriate solvent (in DMSO or in water). These 10× compound solutions (10 μl) were then added to 90 μl pre-diluted whole blood (whole blood: RPMI1640, 1:5) resulting in the final assay concentration.
(§6) Test method: Diluted whole blood (80 μl) was pre-incubated with compounds (10 μl) to give final assay concentrations of 100, 30, 10, 3, 1, 0.3 and 0.1×10^−6M. Blood was incubated at 37° C. with 5% CO2 for 1 h. LPS was diluted in cell culture media to a concentration of […]; 10 μl was added to the whole blood to give a final concentration of 10 ng/ml. Plates were incubated at 37° C. for 18 h. Plates were centrifuged at 3,000 RPM for 5 minutes at 4° C. and supernatant removed and frozen at −80° C. until FACS analysis was carried out.
(§7) Cytokine release was measured using a custom multiplex system (ELISA Genie) according to manufacturers instructions. Prepared samples were run on an Attune NxT flow cytometer (Thermo Fisher).
(§8) Quantification of cytokine release inhibition: known concentration standards were run as part of the cytokine panel to allow quantification of each cytokine concentration in each sample. This was carried out using FCAP Array v3.0 software.
(§9) Results: The dose response relationship on cytokine release following LPS induction of inflammatory response in whole blood was assessed for all compounds. IC50 values were determined for each compound for a panel of cytokines (GM-CSF, IFN-gamma, IL-1beta, IL-2, IL-4, IL-5, IL-6, IL-8, IL-9, IL-10, IL-12p40, IL-13, IL-17A, IL-17F, IL-18, IL-21, IL-22, IL-33, TGF-beta, TNF-alpha, TNF-beta).

Human neutrophils = experiment: Neutrophil adhesion under static conditions; details: fMLP-stimulated adhesion to fibrinogen; method: 40 μM and 80 μM, concentration of the value not stated
Method in brief: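 Donor buffy-coat neutrophils (3×10^6/ml, PBS with Ca/Mg, 10% FCS, pH 7.2) preincubated 30 min at 37° C with 40 μM or 80 μM compound, then stimulated 1 min at 37° C with 1 nM fMLP on fibrinogen-coated glass. Adherent cells fixed and counted by computer; mean ± SD, unpaired t-test.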

IL-17F = experiment: Cytokine release after LPS induction on human whole blood: IL-17F
Description: as §1, §2, §3, §4, §5, §6, §7, §8, §9

TNF-beta = experiment: Cytokine release after LPS induction on human whole blood: TNFβ
Description: as §1, §2, §3, §4, §5, §6, §7, §8, §9

[1] = Homo sapiens, LPS 10 ng/ml, 18 h, read-out: Whole Blood: IL-10 IC50
[2] = human whole blood, inhibition of LPS induced inflammation, read-out: IC50 IL-10
[3] = Homo sapiens, LPS 10 ng/ml, 18 h, read-out: Whole Blood: IL-17F IC50
[4] = human whole blood, inhibition of LPS induced inflammation, read-out: IC50 IL-17F
[5] = Homo sapiens, LPS 10 ng/ml, 18 h, read-out: Whole Blood: TNF β IC50
[6] = human whole blood, inhibition of LPS induced inflammation, read-out: IC50 β

T1 sequence (P35968 20-1356): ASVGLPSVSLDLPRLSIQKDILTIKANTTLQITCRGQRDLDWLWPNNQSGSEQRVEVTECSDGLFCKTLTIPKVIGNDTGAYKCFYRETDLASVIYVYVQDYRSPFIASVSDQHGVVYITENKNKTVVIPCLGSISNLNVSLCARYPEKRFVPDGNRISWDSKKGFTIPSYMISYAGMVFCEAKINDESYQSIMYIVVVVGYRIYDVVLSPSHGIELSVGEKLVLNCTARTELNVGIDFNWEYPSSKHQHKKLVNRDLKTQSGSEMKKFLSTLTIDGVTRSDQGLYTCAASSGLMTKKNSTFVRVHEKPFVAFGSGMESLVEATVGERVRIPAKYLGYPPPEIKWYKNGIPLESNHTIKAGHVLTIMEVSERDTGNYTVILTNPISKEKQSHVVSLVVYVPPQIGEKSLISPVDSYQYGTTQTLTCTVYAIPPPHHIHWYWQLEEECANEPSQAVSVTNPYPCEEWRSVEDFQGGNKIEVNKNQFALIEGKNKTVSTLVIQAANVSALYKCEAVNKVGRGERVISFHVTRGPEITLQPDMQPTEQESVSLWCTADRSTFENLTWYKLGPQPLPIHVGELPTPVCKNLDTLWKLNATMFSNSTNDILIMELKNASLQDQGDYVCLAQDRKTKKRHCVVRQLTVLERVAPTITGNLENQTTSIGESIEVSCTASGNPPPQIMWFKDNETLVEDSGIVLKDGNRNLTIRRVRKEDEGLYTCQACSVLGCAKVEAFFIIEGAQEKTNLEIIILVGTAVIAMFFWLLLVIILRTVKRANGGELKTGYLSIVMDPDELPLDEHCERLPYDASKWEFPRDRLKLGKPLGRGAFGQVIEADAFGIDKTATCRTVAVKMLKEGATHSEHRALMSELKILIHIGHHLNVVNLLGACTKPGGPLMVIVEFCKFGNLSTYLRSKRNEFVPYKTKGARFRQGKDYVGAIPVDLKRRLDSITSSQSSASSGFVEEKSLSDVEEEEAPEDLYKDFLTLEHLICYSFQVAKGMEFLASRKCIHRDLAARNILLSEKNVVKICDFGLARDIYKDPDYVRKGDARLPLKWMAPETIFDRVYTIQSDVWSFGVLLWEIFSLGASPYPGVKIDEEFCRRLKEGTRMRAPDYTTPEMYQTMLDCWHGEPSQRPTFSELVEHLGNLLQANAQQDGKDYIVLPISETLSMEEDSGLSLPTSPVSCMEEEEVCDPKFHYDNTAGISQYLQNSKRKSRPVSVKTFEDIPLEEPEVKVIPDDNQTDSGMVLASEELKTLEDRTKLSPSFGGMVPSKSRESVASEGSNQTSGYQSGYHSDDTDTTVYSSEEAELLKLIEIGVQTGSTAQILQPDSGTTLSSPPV

Structure (SMILES) | IC50 (VEGFR-2) | IC50 (IL-10; [1]) | IC50 (IL-10; [2]) | IC50 (IL-17F; [3]) | IC50 (IL-17F; [4]) | IC50 (TNF-beta; [5]) | IC50 (TNF-beta; [6]) | Neutrophil adhesion inhibition (Human neutrophils)
CC(=O)N(Cc1cc(O)c(C(=O)O)cc1O)Cc1cc(O)c(C(=O)O)cc1O [IIIc-057a, N,N-Bis(4-carboxy-2,5-dihydroxyphenylmethyl)acetamide] | 0.2 µM | > 100 µM | 100 µM | 5.06 µM | 5.06 µM | 1.58 µM | 1.58 µM | 40.04%
O=C(O)c1cc(NC(=O)c2cc(O)c(C(=O)O)cc2O)cc(C(=O)O)c1 [Ia-015a, 5-(4-carboxy-2,5-dihydroxybenzamido)isophthalic acid] | 0.15 µM | 5.27 µM | 5.27 µM | 0.15 µM | 0.15 µM | 0.3 µM | 0.3 µM | 17.38%
O=C(O)c1cc(NC(=O)c2cc(O)cc(C(=O)Nc3ccc(O)c(C(=O)O)c3)c2O)ccc1O [IIc-007a, 5-(3-(3-carboxy-4-hydroxyphenylaminocarbonyl)-2,5-dihydroxybenzamido)-2-hydroxy benzoic acid] | 0.44 µM | 17.9 µM | 17.9 µM | 0.26 µM | 0.26 µM | 0.29 µM | 0.29 µM | 64.61%
O=C(O)c1cc(O)cc(CSCc2cc(O)cc(C(=O)O)c2O)c1O [IVc-058a, 3-((2,5-Dihydroxy-3-carboxyphenyl)methylthiomethyl)-2,5-dihydroxybenzoic acid] | 0.53 µM | 16.4 µM | 16.4 µM | 86.8 µM | 86.8 µM | 59.3 µM | 59.3 µM | 43.5%
O=C(O)c1cc(O)c(C(=O)Nc2ccccc2S(=O)(=O)O)cc1O [Ia-001c, 2,5-dihydroxy-4-(2-sulfophenylaminocarbonyl)benzoic acid] | 3.31 µM | 1.9 µM | 1.9 µM | 89.7 µM | 89.7 µM | 29.7 µM | 29.7 µM | 31.33%

Continued, in another order:

IC50 (VEGFR-2) | IC50 (IL-10; [1]) | IC50 (IL-10; [2]) | IC50 (IL-17F; [3]) | IC50 (IL-17F; [4]) | IC50 (TNF-beta; [5]) | IC50 (TNF-beta; [6]) | Structure (SMILES) | Neutrophil adhesion inhibition (Human neutrophils)
2.2 µM | > 100 µM |  | 0.15 µM |  | 0.41 µM |  | O=C(Nc1ccccc1-c1nnn[nH]1)c1cc(O)c(C(=O)Nc2ccccc2-c2nnn[nH]2)cc1O [Ic-001aTz2, N1,N4-bis(2-(1H-tetrazol-5-yl)phenyl)-2,5-dihydroxyterephthalamide] | 97.15%
 | 16.8 µM | 16.8 µM | 25.8 µM | 25.8 µM | 19.4 µM | 19.4 µM | COC(=O)c1cc(OC(C)=O)cc(CS(=O)(=O)Cc2cc(OC(C)=O)cc(C(=O)OC)c2OC(C)=O)c1OC(C)=O [IVc-059a-E2-A4] | 87.5%
0.27 µM | > 100 µM | 100 µM | 28.8 µM | 28.8 µM | 91.5 µM | 91.5 µM | O=C(O)c1ccccc1CNC(=O)c1cc(O)cc(C(=O)O)c1O [IIa-053a, 3-(2-Carboxyphenylmethylaminocarbonyl)-2,5-dihydroxybenzoic acid] | 20%
6.4 µM | 6.94 µM | 6.94 µM | 83.9 µM | 83.9 µM | 55 µM | 55 µM | O=C(O)c1cc(O)c(C(=O)Nc2ccc(-c3nnn[nH]3)cc2)cc1O [Ia-003a-Tz, 4-(4-(1H-tetrazol-5-yl)phenyl-aminocarbonyl)-2,5-dihydroxybenzoic acid] | 30.33%
1.3 µM | 37.3 µM | 37.3 µM | 0.41 µM | 0.41 µM | 0.89 µM | 0.89 µM | O=C(O)Cc1cc(O)c(C(=O)Nc2c(C(=O)O)cccc2C(=O)O)cc1O [IIIa-013a, 2-(4-(carboxymethyl)-2,5-dihydroxybenzamido)isophthalic acid] | 30.667%
